The record followed here is patent US10828316B2, “Method of treating bacterial infections” (priority 2016, dated 2020).

In brackets after ≈: the same amount, converted by molar mass. Read-outs that look alike come from different tables or passages of the source. Bounds are passed on as bounds.

The subject of one test is A. baumannii EN007. The experiment in a line: MIC. The note with it: in FdUrd+trimethoprim+uridine combination. The class given is cell-based, Acinetobacter baumannii.
The subject of the next test is K. pneumoniae EN0145. As to the kind of experiment: MIC. The note with it: in FdUrd+trimethoprim+uridine combination. The format is cell-based.
In the next test the test system is K. pneumoniae EN0144. The experiment in a line: MIC. The class given is cell-based. The note with it: in FdUrd+trimethoprim+uridine combination.
The test system of another test is S. marescens EN0454. As to the kind of experiment: MIC. The class given is cell-based, Serratia marescens. The note with it: in FdUrd+trimethoprim+uridine combination.
Another test concerns Citrobacter sp. EN0465. The experiment in a line: MIC. The format is cell-based. The note with it: in FdUrd+trimethoprim+uridine combination.
Another test has as its system P. mirabilis EN0457. The experiment in a line: MIC. The note with it: in FdUrd+trimethoprim+uridine combination. The format is cell-based, Proteus mirabilis.
The test system of a further test is K. pneumoniae EN0244. The experiment in a line: MIC. The format is cell-based. Particulars: in FdUrd+trimethoprim+uridine combination.
In the next test the test system is K. pneumoniae EN0245. As to the kind of experiment: MIC. The format is cell-based. Particulars: in FdUrd+trimethoprim+uridine combination.
The subject of another test is A. baumannii EN016. As to the kind of experiment: MIC. Particulars: in FdUrd+trimethoprim+uridine combination. The format is cell-based, Acinetobacter baumannii.
A further test concerns K. pneumoniae EN0143. As to the kind of experiment: MIC. The class given is cell-based. The note with it: in FdUrd+trimethoprim+uridine combination.
A further test has as its system P. mirabilis ST19 EN0445. As to the kind of experiment: MIC. The class given is cell-based, Proteus mirabilis. Particulars: in FdUrd+trimethoprim+uridine combination.
The subject of the next test is P. aeruginosa EN0422. As to the kind of experiment: MIC. The format is cell-based, Pseudomonas aeruginosa. Particulars: in FdUrd+trimethoprim+uridine combination.
The next test deals with P. aeruginosa EN014. As to the kind of experiment: MIC. Particulars: in FdUrd+trimethoprim+uridine combination. The format is cell-based, Pseudomonas aeruginosa.
The next test concerns P. aeruginosa EN0459. The experiment in a line: MIC. The note with it: in FdUrd+trimethoprim+uridine combination. The class given is cell-based, Pseudomonas aeruginosa.
A further test has as its system E. coli EN0139. The experiment in a line: MIC. The format is cell-based. Particulars: in FdUrd+trimethoprim+uridine combination.
For another test, the system named is K. pneumoniae EN0262. As to the kind of experiment: MIC. The format is cell-based. Particulars: in FdUrd+trimethoprim+uridine combination.
Another test deals with K. pneumoniae EN0140. The experiment in a line: MIC. The note with it: in FdUrd+trimethoprim+uridine combination. The class given is cell-based.
In the next test the test system is E. coli EN0235. The format is cell-based.
A further test has as its system K. pneumoniae EN0437. The experiment in a line: MIC. The class given is cell-based. The note with it: in FdUrd+trimethoprim+uridine combination.
The next test concerns P. aeruginosa EN0460. The experiment in a line: MIC. The format is cell-based, Pseudomonas aeruginosa. The note with it: in FdUrd+trimethoprim+uridine combination.
The test system of another test is E. coli EN0136. As to the kind of experiment: MIC. The class given is cell-based. Particulars: in FdUrd+trimethoprim+uridine combination.
The next test concerns E. coli EN003. As to the kind of experiment: MIC. The class given is cell-based, Escherichia coli. Particulars: in FdUrd+trimethoprim+uridine combination.
The test system of another test is M. luteus EN0455. The experiment in a line: MIC. The class given is cell-based, Micrococcus luteus. Particulars: in FdUrd+trimethoprim+uridine combination.
Another test deals with E. coli EN0134. As to the kind of experiment: MIC. Particulars: in FdUrd+trimethoprim+uridine combination. The class given is cell-based.
The subject of the next test is E. coli strain no 2. As to the kind of experiment: MIC. Particulars: Escherichia coli.
In another test the test system is S. aureus strain no 13. The experiment in a line: MIC. The note with it: Staphylococcus aureus, NO13, read-out: MIC of trimethoprim only.

Usually MIC stands for the lowest concentration found to suppress growth. Take `O=c1[nH]c(=O)n([C@H]2C[C@H](O)[C@@H](CO)O2)cc1F` [FdUrd]: the minimum inhibitory concentration (MIC) was greater than 4 µg/mL with A. baumannii EN007; greater than 4 µg/mL in the test on K. pneumoniae EN0145; greater than 4 µg/mL in the test with K. pneumoniae EN0144; greater than 4 µg/mL in the test on S. marescens EN0454; greater than 4 µg/mL with Citrobacter sp. EN0465; 1 µg/mL in the test with P. mirabilis EN0457. For the same compound, the MIC in the test with K. pneumoniae EN0244 was greater than 4 µg/mL; with K. pneumoniae EN0245, greater than 4 µg/mL; in the test on A. baumannii EN016, 4 µg/mL; in the test on K. pneumoniae EN0143, greater than 4 µg/mL; with P. mirabilis ST19 EN0445, 0.5 µg/mL; in the test with P. aeruginosa EN0422, greater than 4 µg/mL. The MIC in the test on P. aeruginosa EN014 is greater than 4 µg/mL; with P. aeruginosa EN0459 it was greater than 4 µg/mL; in the test on E. coli EN0139, 0.5 µg/mL; with K. pneumoniae EN0262, 2 µg/mL; in the test on K. pneumoniae EN0140, greater than 4 µg/mL; in the test on E. coli EN0235 it was 0.06 µg/mL (≈ 0.244 µM). Moreover, the minimal inhibitory concentration (MIC) was greater than 4 µg/mL in the test with K. pneumoniae EN0437; greater than 4 µg/mL in the test with P. aeruginosa EN0460; 1 µg/mL in the test on E. coli EN0136; 0.016 µg/mL with E. coli EN003; 2 µg/mL in the test with M. luteus EN0455; greater than 4 µg/mL in the test on E. coli EN0134.
As to `COc1cc(Cc2cnc(N)nc2N)cc(OC)c1OC` [Trimethoprim, trimethoprim], the MIC in the test with E. coli strain no 2 (NO2, E. coli strain 2, 5 uM thymidine, uridine 0 μg/ml) is 5 to 10 µg/mL (≈ 17.2 to 34.4 µM); with E. coli strain no 2 (NO2, E. coli strain 2, 5 uM thymidine, uridine 10 μg/ml) it was 2.5 to 5 µg/mL (≈ 8.61 to 17.2 µM); with E. coli strain no 2 (NO2, E. coli strain 2, 5 uM thymidine, uridine 100 μg/ml), 2.5 to 5 µg/mL (≈ 8.61 to 17.2 µM); with E. coli strain no 2 (NO2, read-out: MIC of trimethoprim only, E. coli strain no 2), 8 to 16 µg/mL; in the test on S. aureus strain no 13, less than 32 µg/mL. Besides, in the test on E. coli (Trimethoprim 30 mg/kg, single mice), the score at sampling is on record as 1. Also, the “inhibition in mice infected with E. coli” value in the test with E. coli (murine peritonitis model) was “slight inhibition”.
